Data published in patent US9145415B2, “Nitrogen-containing heterocyclic compound or salt thereof” (FUJIFILM Corporation, priority 2012, dated 2015).
pIC50: −log10 of the molar value. Where two headings read alike, the source gives them in different places.

Key:
[1] = target: T1, human FLT3 protein (FLT3 (WT)) (Homo sapiens, UniProt P36888); experiment: FLT3 inhibition test (FLT3 enzyme inhibition, time-resolved fluorescence of substrate peptide phosphorylation); format: biochemical; settings: read-out: FLT3 (WT) enzyme inhibition activity
T1 construct: human FLT3 protein (intracellular region, 564 to 993 aa); GST; purchased Carna Biosciences; host or cells: baculovirus expression system
T1 sequence (P36888 564-993): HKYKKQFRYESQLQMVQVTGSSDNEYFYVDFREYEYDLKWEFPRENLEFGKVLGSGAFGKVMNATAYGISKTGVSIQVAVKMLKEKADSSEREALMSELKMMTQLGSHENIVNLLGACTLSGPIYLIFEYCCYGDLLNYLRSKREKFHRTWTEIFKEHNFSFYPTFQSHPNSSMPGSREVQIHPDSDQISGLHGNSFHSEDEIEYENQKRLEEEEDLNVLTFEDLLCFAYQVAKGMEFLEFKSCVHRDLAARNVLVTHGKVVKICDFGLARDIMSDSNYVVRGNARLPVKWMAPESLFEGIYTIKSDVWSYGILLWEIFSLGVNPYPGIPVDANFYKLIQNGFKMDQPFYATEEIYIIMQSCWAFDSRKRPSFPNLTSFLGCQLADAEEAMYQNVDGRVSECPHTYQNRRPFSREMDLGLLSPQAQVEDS
Procedure, shortened: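 Wild-type human FLT3 (1.2 μg) pre-incubated with compound 15 min at 25° C in 100 mM HEPES pH 7.5, 10 mM MgCl2, 25 mM NaCl, 1 mM DTT. Reaction started with substrate peptide and ATP (final 50 μM), run 30 min at 25° C; phosphorylation read by time-resolved fluorescence.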

[2] = system: MV4-11 cells; experiment: Leukemia cell proliferation inhibition test (ATPlite), MV4-11; format: cell-based; settings: read-out: MV4-11 cell proliferation inhibition effect
Procedure, shortened: (§1)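 Luminescent ATP read-out (firefly luciferase) used as a total cell count after 72 h compound exposure at 37° C, 5% CO2. Cells: 10,000/well in RPMI + 10% FBS. GI50 = 50% inhibition relative to 0.1% DMSO, from a sigmoid dose-response fit; duplicates.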

[3] = system: Molm-13 cells; experiment: Leukemia cell proliferation inhibition test (ATPlite), Molm-13; format: cell-based; settings: read-out: MOLM13 cell proliferation inhibition effect
Procedure, shortened: as §1

[4] = GST-fused human FLT3 (564 to 993 aa), ATP 50 μM
[5] = Homo sapiens, MV4-11, 72 h, MV4-11, 72 hours culture, ATPlite, GI50 per method
[6] = Homo sapiens, MOLM-13, 72 h, Molm-13, 72 hours culture, ATPlite, GI50 per method
[7] = Homo sapiens, MV4-11, MV4-11 cell
[8] = Homo sapiens, MOLM-13, MOLM13 cell

SMILES | pIC50 [1, 4] | pIC50 [2, 5] | pIC50 [3, 6] | pIC50 ([2]; MV4-11, 72 hours culture, ATPlite, GI50 per method) | pIC50 ([3]; Molm-13, 72 hours culture, ATPlite, GI50 per method) | pIC50 ([1]; FLT3 (WT)) | pIC50 [2, 7] | pIC50 [3, 8]
COCCCNc1nc(Nc2ccc3c(cnn3C)c2)ncc1C#CCCCNC(=O)[C@H](C)N(C)C(=O)/C=C/CN(C)C [Compound 10-55] | > 8.00 | > 8.00 | > 8.00 | – | – | – | – | –
CCCNc1nc(Nc2cccc(F)c2)ncc1C#Cc1cccc(NC(=O)[C@H](C)N(C)C(=O)/C=C/CN(C)C)n1 [Compound 8-20] | 7.00 to 8.00 | 7.00 to 8.00 | 6.00 to 7.00 | – | – | – | – | –
CC(C)CCNc1nc(Nc2ccc(C#N)cc2)ncc1C#CCCCNC(=O)[C@H](C)N(C)C(=O)/C=C/CN(C)C [Compound 10-13] | > 8.00 | > 8.00 | > 8.00 | – | – | – | – | –
CNc1nc(Nc2cccc(F)c2)ncc1C#CCCCNC(=O)[C@@H]1CCCN1C(=O)/C=C/CN(C)C [Compound 7-77] | > 8.00 | > 8.00 | > 8.00 | – | – | – | – | –
COCCCNc1nc(Nc2ccc(C#N)cc2)ncc1C#CCCCNC(=O)[C@H](C)N(C)C(=O)/C=C/CN(C)C [Compound 10-49] | > 8.00 | > 8.00 | > 8.00 | – | – | – | – | –
CCCNc1nc(Nc2ccc(C(N)=O)cc2)ncc1C(=O)N[C@@H]1CCC[C@H](Nc2ccccc2NC(=O)/C=C/CN(C)C)C1 [Compound 3-28] | > 8.00 | – | – | 6.00 to 7.00 | 6.00 to 7.00 | – | – | –
CCCNc1nc(Nc2ccnc(OC)c2)ncc1C#CCCCNC(=O)[C@@H]1C[C@H](O)CN1C(=O)/C=C/CN(C)C [Compound 9-36] | > 8.00 | > 8.00 | > 8.00 | – | – | – | – | –
C[C@@H](C(=O)N[C@H]1C[C@@H](C#Cc2cnc(Nc3cccc(F)c3)nc2NC2CC2)C1)N(C)C(=O)/C=C/CN(C)C [Compound 15-7] | > 8.00 | > 8.00 | > 8.00 | – | – | – | – | –
CNc1nc(Nc2ccc3cn[nH]c3c2)ncc1C#CCCCNC(=O)[C@H](C)N(C)C(=O)/C=C/CN(C)C [Compound 10-63] | > 8.00 | > 8.00 | > 8.00 | – | – | – | – | –
CCCNc1nc(Nc2ccc(F)cc2)ncc1C#CCCCNC(=O)[C@H](C)N(C)C(=O)/C=C/CN(C)C [Compound 12-3] | > 8.00 | > 8.00 | > 8.00 | – | – | – | – | –
CCCNc1nc(NCCc2ccncc2)ncc1C(=O)Nc1cccc(NC(=O)C(C)(C)NC(=O)/C=C/CN(C)C)c1 [Compound 2-11] | > 8.00 | 7.00 to 8.00 | 7.00 to 8.00 | – | – | – | – | –
CNc1nc(Nc2ccc(F)cc2)ncc1C#CCCCNC(=O)[C@@H]1C[C@@H](F)CN1C(=O)/C=C/CN(C)C [Compound 7-81, (2S,4R)-1-((E)-4-(Dimethylamino)-2-butenoyl)-4-fluoro-N-(5-(2-((4-fluorophenyl)amino)-4-(methylamino)pyrimidin-5-yl)-4-pentyn-1-yl)pyrrolidine-2-carboxamide] | > 8.00 | > 8.00 | > 8.00 | – | – | – | – | –
C=CC(=O)N(C)CC(=O)NC(CC)CCNC(=O)c1cnc(NCCc2ccncc2)nc1NCCC (stereo not drawn) [Compound 1-7] | > 8.00 | 7.00 to 8.00 | > 8.00 | – | – | – | – | –
CCCNc1nc(Nc2ccnc(F)c2)ncc1C#CC(C)(C)CCNC(=O)[C@H](C)N(C)C(=O)/C=C/CN(C)C [Compound 9-19] | > 8.00 | > 8.00 | > 8.00 | – | – | – | – | –
C[C@@H](C(=O)NCCCC#Cc1cnc(Nc2ccnc(F)c2)nc1N1CCOCC1)N(C)C(=O)/C=C/CN(C)C [Compound 9-11] | > 8.00 | > 8.00 | > 8.00 | – | – | – | – | –
CCCNc1nc(Nc2ccc3c(c2)c(OC)nn3C)ncc1C#CCCCNC(=O)[C@H](C)N(C)C(=O)/C=C/CN(C)C [Compound 22-25] | – | – | – | – | – | > 8.00 | > 8.00 | > 8.00
CCCNc1nc(Nc2ccc(C#N)cc2)ncc1C#CCCCNC(=O)[C@@H]1CCN1C(=O)/C=C/CN(C)C [Compound 7-52] | > 8.00 | > 8.00 | > 8.00 | – | – | – | – | –

SMILES | pIC50 [1, 4] | pIC50 [2, 5] | pIC50 [3, 6] | pIC50 ([2]; MV4-11, 72 hours culture, ATPlite, GI50 per method) | pIC50 ([3]; Molm-13, 72 hours culture, ATPlite, GI50 per method) | pIC50 ([1]; FLT3 (WT)) | pIC50 [2, 7] | pIC50 [3, 8]
CCCNc1nc(Nc2cccc(F)c2)ncc1C#CCCCNC(=O)[C@@H]1CC(F)(F)CN1C(=O)/C=C/CN(C)C [Compound 7-53] | 7.00 to 8.00 | > 8.00 | > 8.00 | – | – | – | – | –
CNc1nc(Nc2ccc(C#N)cc2)ncc1C#C[C@H]1C[C@@H](NC(=O)[C@H](C)N(C)C(=O)/C=C/CN(C)C)C1 [Compound 13-14, (E)-N—((S)-1-(((1S,3R)-3-((2-((4-Cyanophenyl)amino)-4-(methylamino)pyrimidin-5-yl)ethynyl)cyclobutyl)amino)-1-oxopropan-2-yl)-4-(dimethylamino)-N-methyl-2-butenamide] | > 8.00 | > 8.00 | > 8.00 | – | – | – | – | –
CCCNc1nc(Nc2cnc3[nH]nc(OC)c3c2)ncc1C#CCCCNC(=O)[C@H](C)N(C)C(=O)/C=C/CN(C)C [Compound 22-66] | – | – | – | – | – | > 8.00 | > 8.00 | > 8.00
COCCCNc1nc(Nc2ccc(C#N)cc2)ncc1C#C[C@H]1C[C@@H](NC(=O)[C@H](C)N(C)C(=O)/C=C/CN(C)C)C1 [Compound 15-16, (E)-N—((S)-1-(((1S,3R)-3-((2-((4-Cyanophenyl)amino)-4-((3-methoxypropyl)amino)pyrimidin-5-yl)ethynyl)cyclobutyl)amino)-1-oxopropan-2-yl)-4-(dimethylamino)-N-methyl-2-butenamide] | > 8.00 | > 8.00 | > 8.00 | – | – | – | – | –
C[C@@H](C(=O)NCCCC#Cc1cnc(Nc2ccc3cn[nH]c3c2)nc1NC1CC1)N(C)C(=O)/C=C/CN(C)C [Compound 10-73] | > 8.00 | > 8.00 | > 8.00 | – | – | – | – | –
CNc1ncc(C#C[C@@H]2CCC[C@H](NC(=O)[C@H](C)N(C)C(=O)/C=C/CN(C)C)C2)c(Nc2ccc(OC)cc2)n1 [Compound 21-36] | – | – | – | – | – | > 8.00 | > 8.00 | > 8.00
C[C@@H](C(=O)NCCCC#Cc1cnc(Nc2ccc(C#N)cc2)nc1NC1CCC1)N(C)C(=O)/C=C/CN(C)C [Compound 10-47] | > 8.00 | > 8.00 | > 8.00 | – | – | – | – | –
C=CC(=O)Nc1cccc(CNC(=O)c2cnc(NCCc3ccncc3)nc2NCCC)c1 [Compound 2-26] | 7.00 to 8.00 | 6.00 to 7.00 | 6.00 to 7.00 | – | – | – | – | –
C=CC(=O)NCCC(=O)Nc1cccc(NC(=O)c2cnc(NCCc3ccncc3)nc2NCCC)c1 [Compound 2-7] | > 8.00 | 7.00 to 8.00 | 6.00 to 7.00 | – | – | – | – | –
CCCNc1nc(Nc2ccc(C#N)cc2)ncc1C#CCCCNC(=O)[C@H]([C@@H](C)O)N(C)C(=O)/C=C/CN(C)C [Compound 7-63] | > 8.00 | > 8.00 | > 8.00 | – | – | – | – | –
CCCNc1nc(Nc2ccc(C(N)=O)cc2)ncc1C(=O)Nc1ccccc1CNC(=O)[C@H](C)N(C)C(=O)/C=C/CN(C)C [Compound 3-15] | > 8.00 | 6.00 to 7.00 | 6.00 to 7.00 | – | – | – | – | –
CCCNc1nc(Nc2ccnc(OC)c2)ncc1C#C[C@H]1C[C@@H](NC(=O)[C@H](C)N(C)C(=O)/C=C/CN(C)C)C1 [Compound 14-6, (E)-4-(Dimethylamino)-N—((S)-1-(((1S,3R)-3-((2-((2-methoxypyridin-4-yl)amino)-4-(propylamino)pyrimidin-5-yl)ethynyl)cyclobutyl)amino)-1-oxopropan-2-yl)-N-methyl-2-butenamide] | > 8.00 | > 8.00 | > 8.00 | – | – | – | – | –
CCCNc1nc(Nc2ccc(C(N)=O)cc2)ncc1C(=O)NC1CCCC(NC(=O)CN(C)C(=O)/C=C/CN(C)C)C1 (stereo not drawn) [Compound 3-4, (E)-2-((4-Carbamoylphenyl)amino)-N-(3-(2-(4-(dimethylamino)-N-methyl-2-butenamido)actamido)cyclohexyl)-4-(propylamino)pyrimidine-5-carboxamide] | > 8.00 | > 8.00 | > 8.00 | – | – | – | – | –
C=CC(=O)NCC(=O)NC1CCCC(NC(=O)c2cnc(Nc3ccc(C(N)=O)cc3)nc2NCCC)C1 (stereo not drawn) [Compound 3-2] | > 8.00 | 7.00 to 8.00 | 7.00 to 8.00 | – | – | – | – | –
CCCNc1nc(Nc2ccc3scnc3c2)ncc1C#CCCCNC(=O)[C@H](C)N(C)C(=O)/C=C/CN(C)C [Compound 21-15] | > 8.00 | > 8.00 | 7.00 to 8.00 | – | – | – | – | –
COCCNc1nc(Nc2cccc(F)c2)ncc1C#C[C@@H]1CCC[C@H](NC(=O)[C@H](C)N(C)C(=O)/C=C/CN(C)C)C1 [Compound 22-36] | – | – | – | – | – | > 8.00 | > 8.00 | > 8.00
C=CC(=O)NC(C)(C)C(=O)Nc1cccc(NC(=O)c2cnc(NCCc3ccncc3)nc2NCCC)c1 [Compound 2-4] | > 8.00 | > 8.00 | 7.00 to 8.00 | – | – | – | – | –
